EP3840748B1, “SUBSTITUTED IMIDAZOLES FOR THE INHIBITION OF TGF-BETA AND METHODS OF TREATMENT” (Clavius Pharmaceuticals, LLC, priority 2018, dated 2020)
Structures can show the parent of a compound that is named as a salt.

How the values were obtained:
[1] = biological target: T1, TGFBR1 (ALK5) (Homo sapiens, UniProt P36897); experiment: LanthaScreen Eu Kinase Binding Assay TGFBR1 (ALK5) (ThermoFisher SelectScreen); conditions: ALK5 5 nM, Tracer #178 5 nM, Eu-anti-GST antibody 2 nM, 1 hour at room temperature, 1% DMSO; read-out: TβRI (ALK5) Binding IC50
T1 sequence (P36897 34-503): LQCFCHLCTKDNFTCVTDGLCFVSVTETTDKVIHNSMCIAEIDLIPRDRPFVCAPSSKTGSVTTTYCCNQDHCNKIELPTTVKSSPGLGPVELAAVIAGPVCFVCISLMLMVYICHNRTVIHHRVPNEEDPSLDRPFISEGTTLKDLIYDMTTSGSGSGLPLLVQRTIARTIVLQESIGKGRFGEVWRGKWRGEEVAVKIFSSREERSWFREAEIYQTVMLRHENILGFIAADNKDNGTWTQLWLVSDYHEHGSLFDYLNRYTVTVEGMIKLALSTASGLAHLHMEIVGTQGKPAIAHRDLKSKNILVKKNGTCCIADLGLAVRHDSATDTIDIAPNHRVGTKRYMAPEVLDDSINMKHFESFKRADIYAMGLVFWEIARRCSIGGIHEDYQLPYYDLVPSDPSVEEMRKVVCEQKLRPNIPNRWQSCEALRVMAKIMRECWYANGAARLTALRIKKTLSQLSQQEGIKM
Excerpt: (§1) Table 2, below, describes the results of assays carried out on some compounds provided by the present disclosure. Exemplified compounds are confirmed to inhibit ALK5 activity in enzyme and cellular assays in the following assay systems conducted by ThermoFisher in Madison, WI according to their commercially available protocols.
ThermoFisher SelectScreen™ Biochemical Kinase Profiling Service, LanthaScreen™Eu Kinase Binding Assay TGFBR1 (ALK5)
Exemplified compounds are screened in 1% DMSO (final concentration) by 3-fold serial dilutions from 10,000 nM to 0.316 nM or at single concentrations of 10,000, 1000 and 100 nM according to the following protocol. To low volume, white 384-well plates (Greiner Cat#784207) add 160 nL 100x compound in 100% DMSO, 3.84 uL kinase buffer (50 mM HEPES, pH 7.5, 0.01% BRIJ-35, 10 mM MgCl2, 1 mM EGTA), 8 uL 2x kinase/antibody mixture in kinase buffer (final ALK5 concentration of 5 nM; final Eu-anti-GST antibody concentration of 2 nM), 4 uL 4x Tracer #178 in kinase buffer (final concentration of 5 nM). Gently shake the plates for 30 seconds and incubate at room temperature for 1 hour before reading fluorescence on a plate reader. Percent inhibition is determined compared to DMSO only control (maximal ALK5 tracer binding) and sigmoidal dose response curve fit yielded IC50 values as indicated in Table 2.

[2] = test system: TGF-beta 1 stimulated SBE-bla HEK 293T; experiment: GeneBLAzer beta-lactamase (bla) reporter, TGF-beta 1 stimulated SBE-bla HEK 293T cell-based assay (ThermoFisher SelectScreen); conditions: Homo sapiens; SBE-bla HEK 293T cells; 30 minutes pre-incubation with inhibitor; TGF-beta 1 0.03 nM, 5 hours; inhibitor 10,000nM to 0.316nM; read-out: Cells (SBE_HEK293T) IC50
Excerpt: as §1
ThermoFisher SelectScreen™ Cell-based Pathway Profiling Service GeneBLAzer Beta-lactamase (bla) Reporter Technology - TGF-beta 1 stimulated SBE-bla HEK 293T Cell-based Assay
SBE-bla HEK 293T cells are thawed and re-suspended in Assay Media (OPTI-MEM, 0.5% dialyzed FBS, 0.1 mM NEAA, 1 mM Sodium Pyruvate, 100 U/mL/100 µg/mL Pen/Strep) to a concentration of 625,000 cells/mL. 32 µL of cell suspension (20,000 cells) is added to each well of a 384-well Poly-D-Lysine assay plate. Cells in Assay Media are incubated for 16-24 hours in the plate at 37°C/5% CO2 in a humidified incubator. 4 µL of a 10X serial dilution of ALK5 inhibitors (10x = 100,000-3.16 nM) is added to appropriate wells of the plate and pre-incubated at 37°C/5% CO2 in a humidified incubator with cells for 30 minutes. Final concentration of inhibitor ranged from 10,000nM to 0.316nM. 4 µL of 10X TGF-beta 1 (final concentration of 0.03 nM) is added to wells containing the inhibitors. The plate is incubated for 5 hours at 37°C/5% CO2 in a humidified incubator. 8 µL of 1 µM Substrate Loading Solution is added to each well and the plate is incubated for 2 hours at room temperature before being read on a fluorescence plate reader. Percent inhibition is determined compared to DMSO only control (maximal TGF-beta 1 stimulation) and sigmoidal dose response curve fit yielded IC50 values as indicated in Table 2. TABLE 2: Biological activity assay results

Structure (SMILES)	IC50 [1] [nM]	IC50 [2] [nM]
NC(=O)c1ncnc2ccc(-c3c(-c4ccn(C5CC5)n4)nc4sccn34)cc12 [Compound 96, 6-(6-(1-Cyclopropyl-1H-pyrazol-3-yl)imidazo[2,1-b]thiazol-5-yl)quinazoline-4-carboxamide]	1.7	24.9
CC(C)n1ccc(-c2nc3sccn3c2-c2ccc3nc[nH]c(=O)c3c2)n1 [Compound 97, 6-(6-(1-Isopropyl-1H-pyrazol-3-yl)imidazo[2,1-b]thiazol-5-yl)quinazolin-4(3H)-one hydrochloride]	12.5	528
